Experimental data as given in PubChem BioAssay (NCI).
Several values for one entry are separate records, joined by “and”; a condition that tells them apart may be missing. Identical values can stand only once.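 1) Cells in 96-well plates. 2) Compound, 48 h, 5 concentrations. 3) Linear interpolation between surrounding doses. 4) Unreached endpoint = highest concentration. GI50 marks 50% less growth. Definition used: TGI = concentration required for complete inhibition of growth.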

What was measured:
Test in all cases: NCI tumour cell line growth inhibition, 48 h
[1] = system: OVCAR-5 ovarian
[2] = system: OVCAR-3 ovarian
[3] = system: NCI-H23 lung
[4] = system: U251 CNS
[5] = system: HOP-92 NSCLC
[6] = system: SR leukemia
[7] = system: SF-539 CNS
[8] = system: HT29 colon
[9] = system: M14 melanoma
[10] = system: OVCAR-4 ovarian

In the case of `COC(=O)Cc1nn2c(nc1=O)sc1ccc3ccccc3c12`, the TGI [1] is reported as over 100 µM, the TGI [2] is reported as over 100 µM and the TGI [3] is reported as over 100 µM. The TGI [4] was 74.1 µM, the TGI [5] was over 100 µM and the TGI [6] was over 100 µM. The TGI [7] was over 100 µM, the TGI [8] was over 100 µM and the TGI [9] was over 100 µM. It also gave a TGI [10] of over 100 µM.
`CC/C(=C(/CC)c1ccc(O)cc1)c1ccc(O)cc1` gave a GI50 [1] of 14.1 µM, a TGI [1] of 30.1 µM and a GI50 [2] of 2.72 µM. It also gave a TGI [2] of 7 µM, a GI50 [3] of 5.76 µM and a TGI [3] of 23 µM. The GI50 [4] was 4.91 µM, the TGI [4] was 18.2 µM and the GI50 [5] was 5.1 µM. It also gave a TGI [5] of 17.2 µM, a GI50 [6] of 3.98 µM and a TGI [6] of 29.6 µM. The GI50 [7] was 5.84 µM, the TGI [7] was 19.7 µM and the GI50 [8] was 5.16 µM. For the same compound, the TGI [8] was 17.9 µM, the GI50 [9] was 4.57 µM and the TGI [9] was 15.7 µM. For the same compound, the GI50 [10] was 8.06 µM and the TGI [10] was 37 µM.
For `CC(C)(N)C(=O)N[C@@H]1C(=O)N2[C@@H]1SC(C)(C)[C@@H]2C(=O)O`, the TGI [1] was over 100 µM, the TGI [2] was over 100 µM and the TGI [3] was over 100 µM. The TGI [4] was over 100 µM, the TGI [5] was over 100 µM and the TGI [6] was over 100 µM. For the same compound, the TGI [7] was over 100 µM, the TGI [8] was over 100 µM and the TGI [9] was over 100 µM. For the same compound, the TGI [10] was over 100 µM.
Compound `Nc1nc(-c2ccc3ccccc3c2)cc(-c2cc(-c3ccc4ccccc4c3)nc(N)n2)n1` has a TGI [1] of over 100 µM, a TGI [2] of over 100 µM and a TGI [3] of over 100 µM. The TGI [4] was over 100 µM, the TGI [5] was over 100 µM and the TGI [6] was over 100 µM. For the same compound, the TGI [7] was over 100 µM, the TGI [8] was over 100 µM and the TGI [9] was over 100 µM. For the same compound, the TGI [10] was over 100 µM.
`Cc1cc(Cl)ccc1Nc1nc2c(s1)C(=O)c1ccccc1C2=O` gave a TGI [1] of 8.61 µM, a TGI [2] of 4.6 µM and a TGI [3] of 3.96 µM. For the same compound, the TGI [4] was 12.7 µM, the TGI [5] was 27.2 µM and the TGI [6] was 10.8 µM. For the same compound, the TGI [7] was 16 µM, the TGI [8] was 54.6 µM and the TGI [9] was 1.99 µM. The TGI [10] was 9.41 µM.
`CCCCCCn1c2c(c3c(O)cccc31)C(=O)c1ccccc1-2` gave a GI50 [1] of 18.6 µM, a TGI [1] of 32.8 µM and a GI50 [2] of 20.6 µM. It also gave a TGI [2] of 43 µM, a GI50 [3] of 18.4 µM and a TGI [3] of 34.7 µM. It also gave a GI50 [4] of 17.8 µM, a TGI [4] of 32.9 µM and a GI50 [5] of 17.6 µM. The TGI [5] was 33.2 µM, the GI50 [6] was 26 µM and the TGI [6] was over 100 µM. It also gave a GI50 [7] of 18 µM, a TGI [7] of 35.7 µM and a GI50 [8] of 35.6 µM. For the same compound, the TGI [8] was over 100 µM, the GI50 [9] was 15.7 µM and the TGI [9] was 30.2 µM. The GI50 [10] was 25 µM and the TGI [10] was 53 µM.
Work on `C=CCn1c(=O)c(C(=O)NC(=O)OCC)cn(C2CCCCC2)c1=O` yielded a TGI [1] of over 100 µM, a TGI [2] of over 100 µM and a TGI [3] of over 100 µM. For the same compound, the TGI [4] was over 100 µM, the TGI [5] was over 100 µM and the TGI [6] was over 100 µM. It also gave a TGI [7] of over 100 µM, a TGI [8] of over 100 µM and a TGI [9] of over 100 µM. For the same compound, the TGI [10] was over 100 µM.
Work on `CC(=O)Nc1ccc(Cc2ccc3[nH]c(=O)cc(C)c3c2)cc1` yielded a TGI [1] of over 100 µM, a TGI [2] of over 100 µM and a TGI [3] of over 100 µM. It also gave a TGI [4] of over 100 µM, a TGI [5] of over 100 µM and a TGI [6] of over 100 µM. For the same compound, the TGI [7] was over 100 µM, the TGI [8] was over 100 µM and the TGI [9] was over 100 µM. For the same compound, the TGI [10] was over 100 µM.
`CC(O)c1ccc(C(O)/C(=N\NC(=O)c2ccncc2)c2nc3ccc([N+](=O)[O-])cc3[nH]c2=O)cc1` (configuration not stated) gave a TGI [1] of over 100 µM, a TGI [2] of over 100 µM and a TGI [3] of over 100 µM. It also gave a TGI [4] of over 100 µM, a TGI [5] of over 100 µM and a TGI [6] of over 100 µM. It also gave a TGI [7] of over 100 µM, a TGI [8] of over 100 µM and a TGI [9] of over 100 µM. The TGI [10] was over 100 µM.
`COC(=O)[C@H](C)[C@@H]1CC[C@](C)(CCC2=C(C)CCCC2(C)C)OO1` gave a TGI [1] of over 25 µM, a TGI [2] of over 25 µM and a TGI [3] of over 25 µM. It also gave a TGI [4] of over 25 µM, a TGI [5] of over 25 µM and a TGI [6] of over 25 µM. The TGI [7] was over 25 µM, the TGI [8] was over 25 µM and the TGI [9] was over 25 µM. For the same compound, the TGI [10] was over 25 µM.
Compound `COC(=O)C1=Cc2cn(S(=O)(=O)c3ccc(C)cc3)c3cccc(c23)C(C=C(C)C)N1C(C)=O` (configuration not stated) has a TGI [1] of over 100 µM, a TGI [2] of over 100 µM and a TGI [3] of over 100 µM. It also gave a TGI [4] of over 100 µM, a TGI [5] of over 100 µM and a TGI [6] of over 100 µM. For the same compound, the TGI [7] was over 100 µM, the TGI [8] was over 100 µM and the TGI [9] was over 100 µM. For the same compound, the TGI [10] was over 100 µM.
In the case of `O=C(NC(Cc1ccccc1)C(=O)CCl)OCc1ccccc1` (configuration not stated), the GI50 [1] is reported as 5.64 µM, the TGI [1] is reported as 18.5 µM and 24.2 µM and the GI50 [2] is reported as 3.65 µM. The TGI [2] was 11.8 µM and 18.7 µM, the GI50 [3] was 10.5 µM and the TGI [3] was 30.7 µM and 26.1 µM. For the same compound, the GI50 [4] was 6.97 µM, the TGI [4] was 19.6 µM and 22.8 µM and the TGI [5] was 28.3 µM. For the same compound, the GI50 [6] was 2.23 µM, the TGI [6] was over 100 µM and the GI50 [7] was 3 µM. The TGI [7] was 10.3 µM and 16.8 µM, the GI50 [8] was 3.53 µM and the TGI [8] was 16.5 µM and 37.3 µM. For the same compound, the GI50 [9] was 4.69 µM, the TGI [9] was 19.2 µM and 23 µM and the GI50 [10] was 2.04 µM. The TGI [10] was 13.5 µM.
`CNC(=O)c1cc(Oc2ccc3nc(NC(=O)Nc4cc(C(F)(F)F)cc(C(F)(F)F)c4)sc3c2)ccn1` gave a GI50 [1] of 1.55 µM, a TGI [1] of 3.52 µM and a GI50 [2] of 1.03 µM. It also gave a TGI [2] of 2.27 µM, a GI50 [3] of 0.573 µM and a TGI [3] of 2.38 µM. It also gave a GI50 [4] of 1.02 µM, a TGI [4] of 2.2 µM and a GI50 [5] of 0.301 µM. The TGI [5] was 0.949 µM, the GI50 [6] was 0.514 µM and the TGI [6] was 2.6 µM. It also gave a GI50 [7] of 1.24 µM, a TGI [7] of 2.8 µM and a GI50 [8] of 1.21 µM. It also gave a TGI [8] of 2.73 µM, a GI50 [9] of 1.5 µM and a TGI [9] of 3.22 µM. It also gave a GI50 [10] of 0.958 µM and a TGI [10] of 2.73 µM.
Compound `COc1ccc(NC(=O)C2=CC(=O)c3ccc(O)cc3C2=O)c(OC)c1` has a TGI [1] of over 100 µM, a TGI [2] of over 100 µM and a TGI [3] of over 100 µM. For the same compound, the TGI [4] was over 100 µM, the TGI [5] was over 100 µM and the TGI [6] was over 100 µM. The TGI [7] was over 100 µM, the TGI [8] was over 100 µM and the TGI [9] was over 100 µM. The TGI [10] was over 100 µM.
With `[Au+].c1c[n-]cn1.c1ccc([PH+](c2ccccc2)c2ccccc2)cc1` the GI50 [1] was 20.9 µM, the TGI [1] was 42.3 µM and the GI50 [2] was 2.43 µM. For the same compound, the TGI [2] was 5.2 µM, the GI50 [3] was 5.85 µM and the TGI [3] was 25.1 µM. For the same compound, the GI50 [4] was 3.77 µM, the TGI [4] was 26.2 µM and the GI50 [5] was 2.36 µM. The TGI [5] was 4.79 µM, the GI50 [6] was 2.54 µM and the TGI [6] was 9.48 µM. For the same compound, the GI50 [7] was 4.38 µM, the TGI [7] was 10.8 µM and the GI50 [8] was 8 µM. The TGI [8] was 24.7 µM, the GI50 [9] was 2.34 µM and the TGI [9] was 6.73 µM. The GI50 [10] was 13.4 µM and the TGI [10] was 36.7 µM.
`CCCCC1N=CNc2c1ccc1c2[nH]c2ccccc21` (configuration not stated) showed a TGI [1] of 9.07 µM, a TGI [2] of 12.2 µM and a TGI [3] of 11 µM. The TGI [4] was 16.5 µM, the TGI [5] was 9.72 µM and the TGI [6] was 4.66 µM. The TGI [7] was 7.91 µM, the TGI [8] was 3.95 µM and the TGI [9] was 6.74 µM. It also gave a TGI [10] of 8.15 µM.
Compound `Cc1ccnc(NC(c2ccccc2)c2ccc3cccnc3c2O)c1` (configuration not stated) has a GI50 [1] of 8.86 µM, a TGI [1] of over 100 µM and a GI50 [2] of 2.79 µM. The TGI [2] was 14 µM, the GI50 [3] was 5.12 µM and the TGI [3] was over 100 µM. For the same compound, the GI50 [4] was 2.85 µM, the TGI [4] was 12.7 µM and the GI50 [5] was 2.11 µM. It also gave a TGI [5] of 8.95 µM, a GI50 [6] of 2.7 µM and a TGI [6] of over 100 µM. It also gave a GI50 [7] of 3.35 µM, a TGI [7] of 19.2 µM and a GI50 [9] of 3.09 µM. For the same compound, the TGI [9] was 29.2 µM, the GI50 [10] was 3.2 µM and the TGI [10] was 27.1 µM.
